The target in one test is mouse TAAR1 (Mus musculus (Mouse), UniProt Q923Y8). Description: Radioligand binding assay on mouse TAAR1. The following applies: mouse TAAR1 (first value of the cell), HEK-293 membranes; read-out: Ki (μM) mouse/rat. As for the experimental part: (§1) Construction of TAAR Expression Plasmids and Stably Transfected Cell Lines
mouse TAAR1, sequence (Q923Y8 whole entry): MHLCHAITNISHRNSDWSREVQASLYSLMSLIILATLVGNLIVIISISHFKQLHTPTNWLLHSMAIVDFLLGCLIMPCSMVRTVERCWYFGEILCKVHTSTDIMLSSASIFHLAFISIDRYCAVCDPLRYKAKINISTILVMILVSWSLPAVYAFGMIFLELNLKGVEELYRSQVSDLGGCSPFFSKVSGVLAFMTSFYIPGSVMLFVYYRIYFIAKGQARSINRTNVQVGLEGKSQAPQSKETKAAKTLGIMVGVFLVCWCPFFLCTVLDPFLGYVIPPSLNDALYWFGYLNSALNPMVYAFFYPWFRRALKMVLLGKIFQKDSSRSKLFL
(§2) For the construction of expression plasmids the coding sequences of human, rat and mouse TAAR 1 were amplified from genomic DNA essentially as described by Lindemann et al.. The Expand High Fidelity PCR System (Roche Diagnostics) was used with 1.5 mM Mg^2+ and purified PCR products were cloned into pCR2.1-TOPO cloning vector (Invitrogen) following the instructions of the manufacturer. PCR products were subcloned into the pIRESneo2 vector (BD Clontech, Palo Alto, Calif.), and expression vectors were sequence verified before introduction in cell lines.
(§3) HEK293 cells (ATCC #CRL-1573) were cultured essentially as described by Lindemann et al. (2005). For the generation of stably transfected cell lines HEK293 cells were transfected with the pIRESneo2 expression plasmids containing the TAAR coding sequences (described above) with Lipofectamine 2000 (Invitrogen) according to the instructions of the manufacturer, and 24 hrs post transfection the culture medium was supplemented with 1 mg/ml G418 (Sigma, Buchs, Switzerland). After a culture period of about 10 d clones were isolated, expanded and tested for responsiveness to trace amines (all compounds purchased from Sigma) with the cAMP Biotrak Enzyme immunoassay (EIA) System (Amersham) following the non-acetylation EIA procedure provided by the manufacturer.
Radioligand Binding Assay on Mouse TAAR1
Membrane Preparation and Radioligand Binding.
(§4) HEK-293 cells stably expressing mouse TAAR1 were maintained at 37° C. and 5% CO2 in DMEM high glucose medium, containing fetal calf serum (10%, heat inactivated for 30 min at 56° C.), penicillin/streptomycin (1%), and 375 μg/ml geneticin (Gibco). Cells were released from culture flasks using trypsin/EDTA, harvested, washed twice with ice-cold PBS (without Ca^2+ and Mg^2+), pelleted at 1,000 rpm for 5 min at 4° C., frozen and stored at −80° C. Frozen pellets were suspended in 20 ml HEPES-NaOH (20 mM, pH 7.4) containing 10 mM EDTA and homogenized with a Polytron (PT 6000, Kinematica) at 14,000 rpm for 20 s. The homogenate was centrifuged at 48,000×g for 30 min at 4° C. Subsequently, the supernatant was removed and discarded, and the pellet resuspended in 20 ml HEPES-NaOH (20 mM, pH 7.4) containing 0.1 mM EDTA using the Polytron (20 s at 14,000 rpm). This procedure was repeated and the final pellet resuspended in HEPES-NaOH containing 0.1 mM EDTA and homogenized using the Polytron. Typically, aliquots of 2 ml membrane portions were stored at −80° C. With each new membrane batch the dissociation constant (Kd) was determined via a saturation curve. […] All compounds were tested at a broad range of concentrations (10 pM to 10 μM) in duplicates. […] The 96 deep well plates were incubated for 1 hr at 4° C. Incubations were terminated by rapid filtration through Unifilter-96 plates (Packard Instrument Company) and glass filters GF/C (Perkin Elmer) presoaked for 1 hr in polyethylenimine (0.3%) and washed 3 times with 1 ml of cold binding buffer. After addition of 45 μl of Microscint 40 (PerkinElmer) the Unifilter-96 plate was sealed and after 1 hr the ratioactivity counted using a TopCount Microplate Scintillation Counter (Packard Instrument Company).
rat TAAR1, sequence (Q923Y9 whole entry): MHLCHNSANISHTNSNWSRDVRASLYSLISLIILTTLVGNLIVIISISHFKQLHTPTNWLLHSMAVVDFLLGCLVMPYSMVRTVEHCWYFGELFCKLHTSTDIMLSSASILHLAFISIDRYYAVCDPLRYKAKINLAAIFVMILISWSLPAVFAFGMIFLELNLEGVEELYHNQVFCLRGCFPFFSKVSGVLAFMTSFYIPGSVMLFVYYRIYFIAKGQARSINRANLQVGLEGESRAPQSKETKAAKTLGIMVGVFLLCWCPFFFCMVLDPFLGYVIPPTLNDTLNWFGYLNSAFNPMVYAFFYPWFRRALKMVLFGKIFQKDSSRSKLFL
Turning to `FC(F)(F)c1ccc(CNc2ccc([C@H]3CNCCO3)cc2)cc1` [Example 24, ((S)-4-Morpholin-2-yl-phenyl)-(4-trifluoromethyl-benzyl)-amine], the Ki worked out at 0.0119 µM.

Regarding `FC(F)(F)Oc1ccc(CNc2ccc([C@H]3CNCCO3)cc2)cc1` [Example 25, ((S)-4-Morpholin-2-yl-phenyl)-(4-trifluoromethoxy-benzyl)-amine], the Ki turned out to be 0.0124 µM.

For the compound `Clc1ccc2nc(Nc3ccc([C@H]4CNCCO4)cc3)sc2c1` [Example 26, (6-Chloro-benzothiazol-2-yl)-((S)-4-morpholin-2-yl-phenyl)-amine], the Ki turned out to be 0.002 µM.

In the case of `Brc1ccc(CNc2ccc([C@H]3CNCCO3)cc2)nc1` [Example 27, (5-Bromo-pyridin-2-ylmethyl)-((S)-4-morpholin-2-yl-phenyl)-amine], the Ki was 0.0438 µM.

As to `COc1cccc(CNc2ccc([C@H]3CNCCO3)cc2)n1` [Example 28, (6-Methoxy-pyridin-2-ylmethyl)-((S)-4-morpholin-2-yl-phenyl)-amine], the Ki stood at 0.276 µM.

For `CCOc1cnc(Nc2ccc([C@H]3CNCCO3)cc2)nc1` [Example 29, (5-Ethoxy-pyrimidin-2-yl)-((S)-4-morpholin-2-yl-phenyl)-amine], the Ki was 0.0042 µM.

For the compound `Clc1ccc(CNc2ccc([C@H]3CNCCO3)cc2)cc1Cl` [Example 30, (3,4-Dichloro-benzyl)-((S)-4-morpholin-2-yl-phenyl)-amine], the Ki amounted to 0.0051 µM.

In the case of `Fc1ccc(CNc2ccc([C@H]3CNCCO3)cc2)cc1` [Example 31, (4-Fluoro-benzyl)-((S)-4-morpholin-2-yl-phenyl)-amine], the Ki stood at 0.0452 µM.

In the case of `Clc1ccc(CNc2ccc([C@H]3CNCCO3)cc2)cn1` [Example 32, (S)—N-((6-Chloropyridin-3-yl)methyl)-4-(morpholin-2-yl)aniline], the Ki came out at 0.0357 µM.

As for `FC(F)(F)c1ccc(CNc2ccc([C@H]3CNCCO3)cc2)cn1` [Example 33, (S)-4-(Morpholin-2-yl)-N-((6-(trifluoromethyl)pyridin-3-yl)methyl)aniline], the Ki is 0.047 µM.

As for `Clc1ccc(CCNc2ccc([C@H]3CNCCO3)cc2)cc1` [Example 34, [2-(4-Chloro-phenyl)-ethyl]-((S)-4-morpholin-2-yl-phenyl)-amine], the Ki is 0.0042 µM.

Consider `Fc1cc(Cl)ccc1CNc1ccc([C@H]2CNCCO2)cc1` [Example 35, (4-Chloro-2-fluoro-benzyl)-((S)-4-morpholin-2-yl-phenyl)-amine], for which the Ki is 0.0096 µM.

On to `CCc1ccc(CNc2ccc([C@H]3CNCCO3)cc2)cc1` [Example 36, (4-Ethyl-benzyl)-((S)-4-morpholin-2-yl-phenyl)-amine], for which the Ki came out at 0.0288 µM.

Regarding `Clc1ccc(Nc2ccc([C@H]3CNCCO3)cc2)nc1` [Example 38, (5-Chloro-pyridin-2-yl)-((S)-4-morpholin-2-yl-phenyl)-amine], the Ki was 0.0011 µM.

Consider `COc1ccnc(Nc2ccc([C@H]3CNCCO3)cc2)c1` [Example 39, (S)-4-Methoxy-N-(4-(morpholin-2-yl)phenyl)pyridin-2-amine], for which the Ki was determined as 0.004 µM.

Turning to `Fc1cc(Nc2ccc([C@H]3CNCCO3)cc2)cnc1Cl` [Example 40, (S)-6-Chloro-5-fluoro-N-(4-(morpholin-2-yl)phenyl)pyridin-3-amine], the Ki worked out at 0.0026 µM.

`FC(F)(F)c1cccnc1Nc1ccc([C@H]2CNCCO2)cc1` [Example 41, (S)—N-(4-(Morpholin-2-yl)phenyl)-3-(trifluoromethyl)pyridin-2-amine]: the Ki is 0.27 µM.

Turning to `FC(F)(F)c1ccnc(Nc2ccc([C@H]3CNCCO3)cc2)c1` [Example 42, (S)—N-(4-(Morpholin-2-yl)phenyl)-4-(trifluoromethyl)pyridin-2-amine], the Ki is 0.0023 µM.

`Fc1cncc(Nc2ccc([C@H]3CNCCO3)cc2)c1` [Example 43, (S)-5-Fluoro-N-(4-(morpholin-2-yl)phenyl)pyridin-3-amine]: the Ki is 0.0269 µM.

For `c1ccc2cc(Nc3ccc([C@H]4CNCCO4)cc3)ccc2c1` [Example 44, ((S)-4-Morpholin-2-yl-phenyl)-naphthalen-2-yl-amine], the Ki was determined as 0.0007 µM.

As to `Brc1ccc(CNc2ccc([C@H]3CNCCO3)cc2)cc1` [Example 45, (4-Bromo-benzyl)-((S)-4-morpholin-2-yl-phenyl)-amine], the Ki stood at 0.0061 µM.

As to `c1ccc2nc(Nc3ccc([C@H]4CNCCO4)cc3)ccc2c1` [Example 46, ((S)-4-Morpholin-2-yl-phenyl)-quinolin-2-yl-amine], the Ki was 0.0008 µM.

Consider `Clc1ccc2nc(Nc3ccc([C@H]4CNCCO4)cc3)ccc2c1` [Example 47, (S)-6-Chloro-N-(4-(morpholin-2-yl)phenyl)quinolin-2-amine], for which the Ki turned out to be 0.0012 µM.

With `FC(F)(F)c1cc(Nc2ccc([C@H]3CNCCO3)cc2)c2cccc(C(F)(F)F)c2n1` [Example 49, (S)—N-(4-(Morpholin-2-yl)phenyl)-2,8-bis(trifluoromethyl)quinolin-4-amine], the Ki turned out to be 0.0266 µM.

Take `Clc1ccc2ncnc(Nc3ccc([C@H]4CNCCO4)cc3)c2c1` [Example 50, (S)-6-Chloro-N-(4-(morpholin-2-yl)phenyl)quinazolin-4-amine]: the Ki came out at 0.005 µM.

Take `Clc1nc2ccccc2cc1CNc1ccc([C@H]2CNCCO2)cc1` [Example 51, (S)—N-((2-Chloroquinolin-3-yl)methyl)-4-(morpholin-2-yl)aniline]: the Ki amounted to 0.0363 µM.

A further test has as its target rat TAAR1 (Rattus norvegicus (Rat), UniProt Q923Y9). Nature of the test: Radioligand binding assay on rat TAAR1. The following applies: rat TAAR1 (second value of the cell), HEK-293 membranes; read-out: Ki (μM) mouse/rat. The method, then:
as §1, §2, §3
Radioligand Binding Assay on Rat TAAR1
Membrane Preparation and Radioligand Binding
as §4, with “rat” for “mouse”
Consider `FC(F)(F)c1ccc(CNc2ccc([C@H]3CNCCO3)cc2)cc1` [Example 24, ((S)-4-Morpholin-2-yl-phenyl)-(4-trifluoromethyl-benzyl)-amine], for which the Ki turned out to be 0.149 µM.

As for `FC(F)(F)Oc1ccc(CNc2ccc([C@H]3CNCCO3)cc2)cc1` [Example 25, ((S)-4-Morpholin-2-yl-phenyl)-(4-trifluoromethoxy-benzyl)-amine], the Ki was 0.0705 µM.

As to `Clc1ccc2nc(Nc3ccc([C@H]4CNCCO4)cc3)sc2c1` [Example 26, (6-Chloro-benzothiazol-2-yl)-((S)-4-morpholin-2-yl-phenyl)-amine], the Ki was determined as 0.0083 µM.

Consider `Brc1ccc(CNc2ccc([C@H]3CNCCO3)cc2)nc1` [Example 27, (5-Bromo-pyridin-2-ylmethyl)-((S)-4-morpholin-2-yl-phenyl)-amine], for which the Ki is 0.808 µM.

For `COc1cccc(CNc2ccc([C@H]3CNCCO3)cc2)n1` [Example 28, (6-Methoxy-pyridin-2-ylmethyl)-((S)-4-morpholin-2-yl-phenyl)-amine], the Ki is 0.561 µM.

As for `CCOc1cnc(Nc2ccc([C@H]3CNCCO3)cc2)nc1` [Example 29, (5-Ethoxy-pyrimidin-2-yl)-((S)-4-morpholin-2-yl-phenyl)-amine], the Ki was 0.155 µM.

Regarding `Clc1ccc(CNc2ccc([C@H]3CNCCO3)cc2)cc1Cl` [Example 30, (3,4-Dichloro-benzyl)-((S)-4-morpholin-2-yl-phenyl)-amine], the Ki was determined as 0.0417 µM.

Take `Fc1ccc(CNc2ccc([C@H]3CNCCO3)cc2)cc1` [Example 31, (4-Fluoro-benzyl)-((S)-4-morpholin-2-yl-phenyl)-amine]: the Ki turned out to be 0.222 µM.

On to `Clc1ccc(CNc2ccc([C@H]3CNCCO3)cc2)cn1` [Example 32, (S)—N-((6-Chloropyridin-3-yl)methyl)-4-(morpholin-2-yl)aniline], for which the Ki was determined as 1.24 µM.

For `FC(F)(F)c1ccc(CNc2ccc([C@H]3CNCCO3)cc2)cn1` [Example 33, (S)-4-(Morpholin-2-yl)-N-((6-(trifluoromethyl)pyridin-3-yl)methyl)aniline], the Ki turned out to be 0.544 µM.

For `Clc1ccc(CCNc2ccc([C@H]3CNCCO3)cc2)cc1` [Example 34, [2-(4-Chloro-phenyl)-ethyl]-((S)-4-morpholin-2-yl-phenyl)-amine], the Ki is 0.0181 µM.

Take `Fc1cc(Cl)ccc1CNc1ccc([C@H]2CNCCO2)cc1` [Example 35, (4-Chloro-2-fluoro-benzyl)-((S)-4-morpholin-2-yl-phenyl)-amine]: the Ki came to 0.188 µM.

Regarding `CCc1ccc(CNc2ccc([C@H]3CNCCO3)cc2)cc1` [Example 36, (4-Ethyl-benzyl)-((S)-4-morpholin-2-yl-phenyl)-amine], the Ki turned out to be 0.163 µM.

As to `Clc1ccc(Nc2ccc([C@H]3CNCCO3)cc2)nc1` [Example 38, (5-Chloro-pyridin-2-yl)-((S)-4-morpholin-2-yl-phenyl)-amine], the Ki amounted to 0.0544 µM.

For `COc1ccnc(Nc2ccc([C@H]3CNCCO3)cc2)c1` [Example 39, (S)-4-Methoxy-N-(4-(morpholin-2-yl)phenyl)pyridin-2-amine], the Ki worked out at 0.251 µM.

`Fc1cc(Nc2ccc([C@H]3CNCCO3)cc2)cnc1Cl` [Example 40, (S)-6-Chloro-5-fluoro-N-(4-(morpholin-2-yl)phenyl)pyridin-3-amine]: the Ki came out at 0.188 µM.

Turning to `FC(F)(F)c1cccnc1Nc1ccc([C@H]2CNCCO2)cc1` [Example 41, (S)—N-(4-(Morpholin-2-yl)phenyl)-3-(trifluoromethyl)pyridin-2-amine], the Ki turned out to be 1.08 µM.

Consider `FC(F)(F)c1ccnc(Nc2ccc([C@H]3CNCCO3)cc2)c1` [Example 42, (S)—N-(4-(Morpholin-2-yl)phenyl)-4-(trifluoromethyl)pyridin-2-amine], for which the Ki came out at 0.0518 µM.

As for `Fc1cncc(Nc2ccc([C@H]3CNCCO3)cc2)c1` [Example 43, (S)-5-Fluoro-N-(4-(morpholin-2-yl)phenyl)pyridin-3-amine], the Ki is 0.648 µM.

As to `c1ccc2cc(Nc3ccc([C@H]4CNCCO4)cc3)ccc2c1` [Example 44, ((S)-4-Morpholin-2-yl-phenyl)-naphthalen-2-yl-amine], the Ki amounted to 0.0118 µM.

Consider `Brc1ccc(CNc2ccc([C@H]3CNCCO3)cc2)cc1` [Example 45, (4-Bromo-benzyl)-((S)-4-morpholin-2-yl-phenyl)-amine], for which the Ki stood at 0.126 µM.

Regarding `c1ccc2nc(Nc3ccc([C@H]4CNCCO4)cc3)ccc2c1` [Example 46, ((S)-4-Morpholin-2-yl-phenyl)-quinolin-2-yl-amine], the Ki was found to be 0.0643 µM.

`Clc1ccc2nc(Nc3ccc([C@H]4CNCCO4)cc3)ccc2c1` [Example 47, (S)-6-Chloro-N-(4-(morpholin-2-yl)phenyl)quinolin-2-amine]: the Ki amounted to 0.0067 µM.

As for `FC(F)(F)c1cc(Nc2ccc([C@H]3CNCCO3)cc2)c2cccc(C(F)(F)F)c2n1` [Example 49, (S)—N-(4-(Morpholin-2-yl)phenyl)-2,8-bis(trifluoromethyl)quinolin-4-amine], the Ki came out at 0.104 µM.

In the case of `Clc1ccc2ncnc(Nc3ccc([C@H]4CNCCO4)cc3)c2c1` [Example 50, (S)-6-Chloro-N-(4-(morpholin-2-yl)phenyl)quinazolin-4-amine], the Ki was determined as 0.0608 µM.

Take `Clc1nc2ccccc2cc1CNc1ccc([C@H]2CNCCO2)cc1` [Example 51, (S)—N-((2-Chloroquinolin-3-yl)methyl)-4-(morpholin-2-yl)aniline]: the Ki amounted to 0.28 µM.

These data come from US8802673B2, “Heterocyclic amine derivatives” (Hoffmann-La Roche Inc, priority 2011, dated 2014).
